The test deals with HPK1 (Homo sapiens, UniProt Q92918). Put plainly: HPK1 Kinase Binding Assay. As to conditions: LanthaScreen tracer 222 binding, active HPK1, one hour incubation at 25° C. The method, then:
A stock solution of 1 mM test compound was prepared in DMSO. The compound plate was prepared by 3-fold and 11-point serial dilutions. 0.1 μL of the compound in DMSO was transferred from the compound plate to the white 384 well polystyrene plates. The assay buffer contained 50 mM HEPES, pH 7.5, 0.01% Tween-20, 5 mM MgCl2, 0.01% BSA, and 5 mM DTT. 5 μl of 4 nM active HPK1 (SignalChem M23-11G) prepared in the buffer was added to the plate. The enzyme concentration given was based on the given stock concentration reported by the vender. 5 μl of 18 nM tracer 222 (ThermoFisher PV6121) and 4 nM LanthaScreen Eu-Anti GST antibody (ThermoFisher PV5595) were added. After one hour incubation at 25° C., the plates were read on a PHERAstar FS plate reader (BMG Labtech). Ki values were determined.
In general terms: Time-resolved FRET reads energy transfer from a long-lived donor to a nearby acceptor.
Compound `CN1CCN(c2ccc(-c3n[nH]c4ccc(-c5ccccc5-c5ccccc5)nc34)cc2)CC1` [Example 22, 5-(Biphenyl-2-yl)-3-(4-(4-methylpiperazin-1-yl)phenyl)-1H-pyrazolo[4,3-b]pyridine] came in with a Ki of 100 to 500 nM.
The same measure for `CN1CCN(c2ccc(-c3n[nH]c4ccc(-c5cccc(N(C)C)c5)nc34)cc2)CC1` [Example 18, N,N-Dimethyl-3-(3-(4-(4-methylpiperazin-1-yl)phenyl)-1H-pyrazolo[4,3-b]pyridin-5-yl)aniline]: 500 to 10000 nM; for `Cn1cc(-c2n[nH]c3ccc(-c4ccccc4F)nc23)cn1` [Example 54]: 100 to 500 nM; for `CN1CCN(c2ccc(-c3n[nH]c4ccc(-c5ccncc5)nc34)cc2)CC1` [Example 25, 3-(4-(4-Methylpiperazin-1-yl)phenyl)-5-(pyridin-4-yl)-1H-pyrazolo[4,3-b]pyridine]: 100 to 500 nM.
Under `CN1CCN(c2ccc(-c3n[nH]c4ccc(-c5cccc6c5ccn6C)nc34)cc2)CC1` [Example 39, 5-(1-Methyl-1H-indol-4-yl)-3-(4-(4-methylpiperazin-1-yl)phenyl)-1H-pyrazolo[4,3-b]pyridine] stands 100 to 500 nM.
The same measure for `CN1CCN(c2ccc(-c3n[nH]c4ccc(-c5ccc(=O)n(C)c5)nc34)cc2)CC1` [Example 30, 1-Methyl-5-(3-(4-(4-methylpiperazin-1-yl)phenyl)-1H-pyrazolo[4,3-b]pyridin-5-yl)pyridin-2(1H)-one]: 500 to 10000 nM; for `CN1CCN(c2ccc(-c3n[nH]c4ccc(-c5ccccc5O)nc34)cc2)CC1` [Example 14, 2-(3-(4-(4-Methylpiperazin-1-yl)phenyl)-1H-pyrazolo[4,3-b]pyridin-5-yl)phenol]: 100 to 500 nM; for `CN1CCN(c2ccc(-c3n[nH]c4ccc(-c5cccc6c5OCC6)nc34)cc2)CC1` [Example 15, 5-(2,3-Dihydrobenzofuran-7-yl)-3-(4-(4-methylpiperazin-1-yl)phenyl)-1H-pyrazolo[4,3-b]pyridine]: 100 to 500 nM.
For the compound `CNC(=O)c1cccc(-c2ccc3[nH]nc(-c4ccc(N5CCN(C)CC5)cc4)c3n2)c1` [Example 17, N-Methyl-3-(3-(4-(4-methylpiperazin-1-yl)phenyl)-1H-pyrazolo[4,3-b]pyridin-5-yl)benzamide], the Ki is 100 to 500 nM.
The same measure for `CN1CCN(c2ccc(-c3n[nH]c4ccc(-c5cccc6ncccc56)nc34)cc2)CC1` [Example 36, 5-(3-(4-(4-Methylpiperazin-1-yl)phenyl)-1H-pyrazolo[4,3-b]pyridin-5-yl)quinoline]: 100 to 500 nM; for `CN1CCN(c2ccc(-c3n[nH]c4ccc(-c5cccc6c5OCCO6)nc34)cc2)CC1` [Example 16, 5-(2,3-Dihydrobenzo[b][1,4]dioxin-5-yl)-3-(4-(4-methylpiperazin-1-yl)phenyl)-1H-pyrazolo[4,3-b]pyridine]: 100 to 500 nM; for `CN1CCN(C(=O)c2ccc(-c3n[nH]c4ccc(-c5ccccc5F)nc34)cc2)CC1` [Example 56, (4-(5-(2-Fluorophenyl)-1H-pyrazolo[4,3-b]pyridin-3-yl)phenyl)(4-methylpiperazin-1-yl)methanone]: 500 to 10000 nM.
The same measure for `CN1CCN(c2ccc(-c3n[nH]c4ccc(-c5cccc6c5CC(=O)N6)nc34)cc2)CC1` [Example 38, 4-(3-(4-(4-Methylpiperazin-1-yl)phenyl)-1H-pyrazolo[4,3-b]pyridin-5-yl)indolin-2-one]: 100 to 500 nM.
Under `Fc1ccccc1-c1ccc2[nH]nc(-c3cnn(C4CCNCC4)c3)c2n1` [Example 58, 5-(2-Fluorophenyl)-3-(1-(piperidin-4-yl)-1H-pyrazol-4-yl)-1H-pyrazolo[4,3-b]pyridine] stands 100 to 500 nM.
Compound `CC(=O)Nc1ccccc1-c1ccc2[nH]nc(-c3ccc(N4CCN(C)CC4)cc3)c2n1` [Example 21, N-(2-(3-(4-(4-Methylpiperazin-1-yl)phenyl)-1H-pyrazolo[4,3-b]pyridin-5-yl)phenyl)acetamide] came in with a Ki of 500 to 10000 nM.
The same measure for `Fc1ccccc1-c1ccc2[nH]nc(-c3ccccc3)c2n1` [Example 51, 5-(2-Fluorophenyl)-3-phenyl-1H-pyrazolo[4,3-b]pyridine]: 500 to 10000 nM; for `CC(=O)N1CCC(n2cc(-c3n[nH]c4ccc(-c5ccccc5F)nc34)cn2)CC1` [Example 60, 1-(4-(4-(5-(2-Fluorophenyl)-1H-pyrazolo[4,3-b]pyridin-3-yl)-1H-pyrazol-1-yl)piperidin-1-yl)ethanone]: 500 to 10000 nM; for `CS(=O)(=O)N1CCC(n2cc(-c3n[nH]c4ccc(-c5ccccc5F)nc34)cn2)CC1` [Example 59, 5-(2-Fluorophenyl)-3-(1-(1-(methylsulfonyl)piperidin-4-yl)-1H-pyrazol-4-yl)-1H-pyrazolo[4,3-b]pyridine]: 500 to 10000 nM.
Turning to `CN1CCN(c2ccc(-c3n[nH]c4ccc(-c5cccc6c5CCC6NCCO)nc34)cc2)CC1` (centres unmarked) [Example 49, 2-(4-(3-(4-(4-Methylpiperazin-1-yl)phenyl)-1H-pyrazolo[4,3-b]pyridin-5-yl)-2,3-dihydro-1H-inden-1-ylamino)ethanol], the Ki was ≤ 100 nM.
As for `O=C(Nc1ccccc1)c1ccc(-c2n[nH]c3ccc(-c4ccccc4F)nc23)cc1` [Example 57, 4-(5-(2-Fluorophenyl)-1H-pyrazolo[4,3-b]pyridin-3-yl)-N-phenylbenzamide], the inhibition constant (Ki) was 500 to 10000 nM.
The same measure for `COc1ccccc1-c1ccc2[nH]nc(-c3ccc(N4CCN(C)CC4)cc3)c2n1` [Example 2]: 100 to 500 nM; for `Fc1ccccc1-c1ccc2[nH]nc(-c3ccncc3)c2n1` [Example 52, 5-(2-Fluorophenyl)-3-(pyridin-4-yl)-1H-pyrazolo[4,3-b]pyridine]: 500 to 10000 nM; for `CN1CCN(c2ccc(-c3n[nH]c4ccc(-c5ccccc5)nc34)cc2)CC1` [Example 1, 3-(4-(4-Methylpiperazin-1-yl)phenyl)-5-phenyl-1H-pyrazolo[4,3-b]pyridine]: 100 to 500 nM.
Compound `COC(=O)c1ccccc1-c1ccc2[nH]nc(-c3ccc(N4CCN(C)CC4)cc3)c2n1` [Example 20, Methyl 2-(3-(4-(4-methylpiperazin-1-yl)phenyl)-1H-pyrazolo[4,3-b]pyridin-5-yl)benzoate] returned a Ki of 500 to 10000 nM.
`CNC(=O)c1ccc(-c2n[nH]c3ccc(-c4ccccc4F)nc23)cc1` [Example 53, 4-(5-(2-Fluorophenyl)-1H-pyrazolo[4,3-b]pyridin-3-yl)-N-methylbenzamide]: the Ki lay in the range of 100 to 500 nM.
The same measure for `CCc1cn2cccc(-c3ccc4[nH]nc(-c5ccc(N6CCN(C)CC6)cc5)c4n3)c2n1` [Example 45, 5-(2-Ethylimidazo[1,2-a]pyridin-8-yl)-3-(4-(4-methylpiperazin-1-yl)phenyl)-1H-pyrazolo[4,3-b]pyridine]: 100 to 500 nM.

For orientation: Ki means a dissociation constant, usually derived from enzyme kinetics or from competition with a known ligand.

The values above are taken from patent US11891388B2 (Incyte Corporation, priority 2016, dated 2024).
